Assay results: patent US9481676B2, “Azepino[4,5-B]indoles and methods of use” (Medivation Technologies, Inc., priority 2008, dated 2016)

Columns and labels:
[1] = molecular target: T1, human recombinant serotonin (5-Hydroxytryptamine) 5-HT6 receptor (Homo sapiens, UniProt P50406); test: Serotonin 5-HT6 radioligand binding ([3H]LSD); settings: compound at 1 μM; read-out: Serotonin (1 μM) 5-HT6, percent inhibition of specific binding
T1 construct: expressed in transfected cells; host or cells: human HeLa cells
Procedure, shortened: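 Human recombinant 5-HT6 receptor from HeLa cells incubated with 1.5 nM [3H]LSD for 120 min at 37° C in 50 mM Tris-HCl pH 7.4, 150 mM NaCl, 2 mM ascorbic acid, 0.001% BSA. Nonspecific binding defined with 5 μM serotonin; bound ligand counted after filtration.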

[2] = molecular target: T2, human recombinant serotonin (5-Hydroxytryptamine) 5-HT2A receptor (Homo sapiens, UniProt P28223); test: Serotonin 5-HT2A radioligand binding ([3H]Ketanserin); settings: compound at 1 μM; read-out: Serotonin (1 μM) 5-HT2A, percent inhibition of specific binding
T2 construct: expressed in transfected cells; host or cells: CHO-K1 cells
Procedure, shortened: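 Percent inhibition of specific [3H]ketanserin (0.5 nM) binding, filtration read-out, with compounds at ≤1 μM (1% DMSO vehicle). Receptor source: recombinant human 5-HT2A in CHO-K1 cells, 50 mM Tris-HCl pH 7.4, 60 min, 25 °C; 1 μM mianserin gives nonspecific binding.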

[3] = molecular target: T3, human recombinant serotonin (5-Hydroxytryptamine) 5-HT2C receptor (Homo sapiens, UniProt P28335); test: Serotonin 5-HT2C radioligand binding ([3H]Mesulergine); settings: compound at 1 μM; read-out: Serotonin (1 μM) 5-HT2C, percent inhibition of specific binding
T3 construct: expressed in transfected cells; host or cells: CHO-K1 cells
T3 sequence (P28335 33-458): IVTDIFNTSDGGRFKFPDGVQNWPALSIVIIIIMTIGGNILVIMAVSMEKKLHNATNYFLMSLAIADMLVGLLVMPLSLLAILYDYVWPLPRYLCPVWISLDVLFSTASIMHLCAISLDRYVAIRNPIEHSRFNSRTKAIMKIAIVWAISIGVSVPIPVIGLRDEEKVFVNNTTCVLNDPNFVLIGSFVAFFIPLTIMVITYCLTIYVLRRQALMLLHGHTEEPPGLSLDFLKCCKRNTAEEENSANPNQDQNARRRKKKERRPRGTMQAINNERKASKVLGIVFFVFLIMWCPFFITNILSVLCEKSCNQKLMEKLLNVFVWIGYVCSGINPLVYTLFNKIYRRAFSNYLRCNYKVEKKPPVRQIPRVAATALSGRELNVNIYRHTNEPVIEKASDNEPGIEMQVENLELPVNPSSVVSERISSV
Procedure, shortened: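 Membranes from CHO-K1 cells expressing human 5-HT2C, incubated with 1 nM [3H]mesulergine for 60 min at 25 °C in 50 mM Tris-HCl pH 7.4 with ascorbic acid and pargyline.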

[4] = molecular target: T4, human recombinant histamine H1 receptor (Homo sapiens, UniProt P35367); test: Histamine H1 radioligand binding ([3H]Pyrilamine); settings: compound at 1 μM; read-out: Histamine Binding (1 μM) H1, percent inhibition of specific binding
T4 construct: expressed in transfected cells; host or cells: CHO cells
Procedure, shortened: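 Membranes from CHO cells expressing the receptor were incubated with compound and 1.2 nM [3H]pyrilamine for 180 min at 25 °C in 50 mM Tris-HCl pH 7.4 with MgCl2, NaCl and sucrose; 1 μM pyrilamine defined non-specific binding. Filter-bound radioactivity was counted.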

T1 sequence (P50406 whole entry): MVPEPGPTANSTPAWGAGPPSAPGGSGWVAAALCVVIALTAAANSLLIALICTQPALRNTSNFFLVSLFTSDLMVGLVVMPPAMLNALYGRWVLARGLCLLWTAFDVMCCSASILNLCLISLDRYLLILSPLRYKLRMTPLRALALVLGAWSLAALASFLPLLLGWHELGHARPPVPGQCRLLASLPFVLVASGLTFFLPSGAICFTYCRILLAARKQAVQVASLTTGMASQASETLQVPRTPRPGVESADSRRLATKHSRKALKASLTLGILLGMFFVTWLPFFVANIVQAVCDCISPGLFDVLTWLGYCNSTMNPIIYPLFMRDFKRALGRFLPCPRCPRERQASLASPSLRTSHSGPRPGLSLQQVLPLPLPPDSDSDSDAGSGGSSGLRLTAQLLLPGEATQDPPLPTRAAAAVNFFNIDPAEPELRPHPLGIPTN
T4 sequence (P35367 whole entry): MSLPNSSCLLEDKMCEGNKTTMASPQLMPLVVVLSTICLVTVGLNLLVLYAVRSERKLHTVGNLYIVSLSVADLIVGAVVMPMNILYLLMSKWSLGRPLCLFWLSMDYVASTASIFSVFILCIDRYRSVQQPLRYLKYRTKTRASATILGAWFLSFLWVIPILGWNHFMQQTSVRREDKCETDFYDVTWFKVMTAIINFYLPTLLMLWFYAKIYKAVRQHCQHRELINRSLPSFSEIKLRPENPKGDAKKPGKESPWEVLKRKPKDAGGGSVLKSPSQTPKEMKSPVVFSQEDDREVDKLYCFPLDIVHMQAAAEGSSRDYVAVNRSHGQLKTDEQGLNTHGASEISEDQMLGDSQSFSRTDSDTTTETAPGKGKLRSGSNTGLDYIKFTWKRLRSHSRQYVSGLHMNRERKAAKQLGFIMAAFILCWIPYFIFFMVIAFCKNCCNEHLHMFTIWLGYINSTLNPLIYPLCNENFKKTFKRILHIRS
T2 sequence (P28223 whole entry): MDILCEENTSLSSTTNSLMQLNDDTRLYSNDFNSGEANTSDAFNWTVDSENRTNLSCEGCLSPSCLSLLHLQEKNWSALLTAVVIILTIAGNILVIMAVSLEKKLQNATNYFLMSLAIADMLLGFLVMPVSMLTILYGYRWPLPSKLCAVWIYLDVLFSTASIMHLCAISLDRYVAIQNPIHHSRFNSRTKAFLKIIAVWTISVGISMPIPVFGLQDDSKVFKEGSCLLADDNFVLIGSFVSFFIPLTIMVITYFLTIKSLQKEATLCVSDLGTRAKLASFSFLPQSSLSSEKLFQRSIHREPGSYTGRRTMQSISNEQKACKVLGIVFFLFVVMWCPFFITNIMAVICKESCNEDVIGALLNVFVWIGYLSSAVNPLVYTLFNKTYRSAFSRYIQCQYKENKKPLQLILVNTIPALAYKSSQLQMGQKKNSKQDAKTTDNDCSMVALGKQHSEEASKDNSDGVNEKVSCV

Structure (SMILES) | inhibition at 1 µM [1] [%] | inhibition at 1 µM [2] [%] | inhibition at 1 µM [3] [%] | inhibition at 1 µM [4] [%]
Cc1ccc(CCn2c3c(c4cc(Cl)ccc42)CCN(C)CC3)cc1 [Compound No. 46, 9-chloro-3-methyl-6-(4-methylphenethyl)-1,2,3,4,5,6-hexahydroazepino[4,5-b]indole] | 98 | 100 | 98 | 108
Cc1ccc2c(c1)c1c(n2CCc2ccc(C(=O)O)nc2)CCN(C)CC1 [Compound No. 11, 5-(2-(2,3,4,5-tetrahydro-3,9-dimethylazepino[4,5-b]indol-6(1H)-yl)ethyl)pyridine-2-carboxylic acid] | 4 | 5 | 34 | 97
Cc1ccc2c(c1)c1c(n2/C=C/c2ccccc2F)CCN(C)CC1 [Compound No. 233, (E)-6-(2-fluorostyryl)-3,9-dimethyl-1,2,3,4,5,6-hexahydroazepino[4,5-b]indole] | 103 | 102 | 100 | 98
CN1CCc2c(n(CCc3ccccc3F)c3ccc(Cl)cc23)CC1 [Compound No. 61, 6-(2-fluorophenethyl)-9-chloro-1,2,3,4,5,6-hexahydro-3-methylazepino[4,5-b]indole] | 5 | 43 | 89 | 97
Cc1ccc2c(c1)c1c(n2CCc2ccccc2)CCN(C)CC1 [Compound No. 62, 1,2,3,4,5,6-hexahydro-3,9-dimethyl-6-phenethylazepino[4,5-b]indole] | -4 | 12 | 101 | 98
CN1CCc2c(n(CC(=O)N(C)C3CCCCC3)c3ccc(Cl)cc23)CC1 [Compound No. 74, 2-(9-chloro-2,3,4,5-tetrahydro-3-methylazepino[4,5-b]indol-6(1H)-yl)-N-cyclohexyl-N-methylacetamide] | -4 | 27 | 1 | 25
CN1CCc2c(n(CC(=O)Nc3ccccc3)c3ccc(Cl)cc23)CC1 [Compound No. 73, 2-(9-chloro-2,3,4,5-tetrahydro-3-methylazepino[4,5-b]indol-6(1H)-yl)-N-phenylacetamide] | 0 | 18 | 11 | 18
COc1ccc(C(O)Cn2c3c(c4cc(Cl)ccc42)CCN(C)CC3)cc1 (centres unmarked) [Compound No. 47, 2-(9-chloro-2,3,4,5-tetrahydro-3-methylazepino[4,5-b]indol-6(1H)-yl)-1-(4-methoxyphenyl)ethanol] | 77 | 99 | 98 | 100
CN1CCc2c(n(CCc3ccc(Cl)cc3)c3ccc(Cl)cc23)CC1 [Compound No. 30, 6-(4-chlorophenethyl)-9-chloro-1,2,3,4,5,6-hexahydro-3-methylazepino[4,5-b]indole] | 86 | 100 | 98 | 102
Cc1ccc2c(c1)c1c(n2CC(=O)NC(C)C)CCN(C)CC1 [Compound No. 54, 2-(2,3,4,5-tetrahydro-3,9-dimethylazepino[4,5-b]indol-6(1H)-yl)-N-isopropylacetamide] | -10 | 1 | -2 | 18
CN1CCc2c(n(CCc3cncc(Cl)c3)c3ccc(Cl)cc23)CC1 [Compound No. 10, 9-chloro-6-(2-(5-chloropyridin-3-yl)ethyl)-1,2,3,4,5,6-hexahydro-3-methylazepino[4,5-b]indole] | 97 | 94 | 92 | 101
